Data from patent US9975907B2, “Pyrimidinones as PI3K inhibitors” (Incyte Corporation, priority 2009, dated 2018).

Key:
PI3Kδ = PI3Kδ (Homo sapiens (Human), UniProt O00329); assay: PI3K Enzyme Assay A2 ([γ-33P]ATP filter plate), PI3Kδ; assay type: biochemical; conditions: column a, Examples 15, 30 and 44 used Assay A2, 1000 μM ATP
Method: Materials: Lipid kinase substrate, phosphoinositol-4,5-bisphosphate (PIP2), was purchased from Echelon Biosciences (Salt Lake City, Utah). PI3K isoforms α, β, δ and γ were purchased from Millipore (Bedford, Mass.). ATP, MgCh, DTT, EDTA, MOPS and CHAPS were purchased from Sigma-Aldrich (St. Louis, Mo.). The kinase reaction was conducted in clear-bottom 96-well plate from Thermo Fisher Scientific in a final volume of 24 μL. Inhibitors were first diluted serially in DMSO and added to the plate wells before the addition of other reaction components. The final concentration of DMSO in the assay was 0.5%. The PI3K assays were carried out at room temperature in 20 mM MOPS, pH 6.7, 10 mM MgCl2, 5 mM DTT and CHAPS 0.03%. The reaction mixture was prepared containing 50 μM PIP2, kinase and varying concentration of inhibitors. Reactions were initiated by the addition of ATP containing 2.2 μCi [γ-^33P]ATP to a final concentration of 1000 μM. […] Reactions were incubated for 180 min and terminated by the addition of 100 μL of 1 M potassium phosphate pH 8.0, 30 mM EDTA quench buffer. […] After the plate sealing, the radioactivity of the product was determined by scintillation counting on Topcount (Perkin-Elmer). […]

[1] = tested on: purified B cells from human PBMC; assay: B Cell Proliferation Assay; assay type: cell-based; conditions: anti-human IgM stimulated, three days, [3H]-thymidine incorporation
Method: To acquire B cells, human PBMC were isolated from the peripheral blood of normal, drug free donors by standard density gradient centrifugation on Ficoll-Hypague (GE Healthcare, Piscataway, N.J.) and incubated with anti-CD19 microbeads (Miltenyi Biotech, Auburn, Calif.). The B cells were then purified by positive immunosorting using an autoMacs (Miltenyi Biotech) according to the manufacturer's instruction.
The purified B cells (2×10^5/well/200 μL) were cultured in 96-well ultra-low binding plates (Corning, Corning, N.Y.) in RPMI1640, 10% FBS and goat F(ab′)2 anti-human IgM (10 μg/ml) (Invitrogen, Carlsbad, Calif.), in the presence of different amount of test compounds, for three days. [^3H]-thymidine (1 μCi/well) (PerkinElmer, Boston, Mass.) in PBS was then added to the B cell cultures for an additional 12 hrs before the incorporated radioactivity was separated by filtration with water through GF/B filters (Packard Bioscience, Meriden, Conn.) and measured by liquid scintillation counting with a TopCount (Packard Bioscience). Compounds having and IC^50 value of 10 μM or less are considered active. See Table 2 for data related to compounds of the invention.

[2] = tested on: Pfeiffer cell line (diffuse large B cell lymphoma); assay: Pfeiffer Cell Proliferation Assay; assay type: cell-based; conditions: Homo sapiens, Pfeiffer, 3-4 days, [3H]-thymidine incorporation
Method: Pfeiffer cell line (diffuse large B cell lymphoma) was purchased from ATCC (Manassas, Va.) and maintained in the culture medium recommended (RPMI and 10% FBS). To measure the anti-proliferation activity of the PI3Kδ submittals, the Pfeiffer cells were plated with the culture medium (2×10^3 cells/well/per 200 μl) into 96-well ultra-low binding plates (Corning, Corning, N.Y.), in the presence or absence of a concentration range of test compounds. After 3-4 days, [^3H]-thymidine (1 μCi/well) (PerkinElmer, Boston, Mass.) in PBS was then added to the cell culture for an additional 12 hrs before the incorporated radioactivity was separated by filtration with water through GF/B filters (Packard Bioscience, Meriden, Conn.) and measured by liquid scintillation counting with a TopCount (Packard Bioscience). See Table 3 for data related to compounds of the invention.

Measured: IC50

Sequence of PI3Kδ (O00329 whole entry, species assumed, canonical isoform): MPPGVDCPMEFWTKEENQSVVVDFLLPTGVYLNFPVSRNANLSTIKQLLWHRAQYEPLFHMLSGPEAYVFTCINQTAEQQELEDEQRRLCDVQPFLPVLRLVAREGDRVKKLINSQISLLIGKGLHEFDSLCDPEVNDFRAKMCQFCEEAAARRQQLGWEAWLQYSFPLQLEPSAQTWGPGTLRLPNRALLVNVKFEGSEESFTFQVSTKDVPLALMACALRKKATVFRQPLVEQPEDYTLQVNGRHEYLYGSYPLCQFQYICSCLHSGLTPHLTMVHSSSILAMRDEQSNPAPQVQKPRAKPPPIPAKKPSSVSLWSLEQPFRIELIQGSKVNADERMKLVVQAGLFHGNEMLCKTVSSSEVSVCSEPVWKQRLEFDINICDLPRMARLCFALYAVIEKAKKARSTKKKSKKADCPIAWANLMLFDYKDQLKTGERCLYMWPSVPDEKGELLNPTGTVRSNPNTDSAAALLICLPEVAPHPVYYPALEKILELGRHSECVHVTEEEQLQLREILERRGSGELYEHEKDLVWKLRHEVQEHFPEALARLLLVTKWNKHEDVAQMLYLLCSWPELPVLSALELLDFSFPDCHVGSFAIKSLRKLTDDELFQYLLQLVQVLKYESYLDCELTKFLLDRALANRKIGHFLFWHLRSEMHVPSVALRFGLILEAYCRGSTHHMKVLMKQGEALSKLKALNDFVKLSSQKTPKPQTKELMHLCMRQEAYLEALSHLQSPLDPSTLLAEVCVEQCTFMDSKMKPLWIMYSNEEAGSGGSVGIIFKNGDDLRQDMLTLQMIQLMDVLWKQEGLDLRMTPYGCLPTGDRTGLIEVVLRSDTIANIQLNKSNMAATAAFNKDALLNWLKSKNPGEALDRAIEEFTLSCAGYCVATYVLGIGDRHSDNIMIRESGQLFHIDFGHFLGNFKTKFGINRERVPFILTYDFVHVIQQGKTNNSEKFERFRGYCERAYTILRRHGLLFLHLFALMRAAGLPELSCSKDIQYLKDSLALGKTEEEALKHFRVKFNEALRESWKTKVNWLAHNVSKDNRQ
Sequence of PI3Kδ (P27986 whole entry partner, species assumed, canonical isoform): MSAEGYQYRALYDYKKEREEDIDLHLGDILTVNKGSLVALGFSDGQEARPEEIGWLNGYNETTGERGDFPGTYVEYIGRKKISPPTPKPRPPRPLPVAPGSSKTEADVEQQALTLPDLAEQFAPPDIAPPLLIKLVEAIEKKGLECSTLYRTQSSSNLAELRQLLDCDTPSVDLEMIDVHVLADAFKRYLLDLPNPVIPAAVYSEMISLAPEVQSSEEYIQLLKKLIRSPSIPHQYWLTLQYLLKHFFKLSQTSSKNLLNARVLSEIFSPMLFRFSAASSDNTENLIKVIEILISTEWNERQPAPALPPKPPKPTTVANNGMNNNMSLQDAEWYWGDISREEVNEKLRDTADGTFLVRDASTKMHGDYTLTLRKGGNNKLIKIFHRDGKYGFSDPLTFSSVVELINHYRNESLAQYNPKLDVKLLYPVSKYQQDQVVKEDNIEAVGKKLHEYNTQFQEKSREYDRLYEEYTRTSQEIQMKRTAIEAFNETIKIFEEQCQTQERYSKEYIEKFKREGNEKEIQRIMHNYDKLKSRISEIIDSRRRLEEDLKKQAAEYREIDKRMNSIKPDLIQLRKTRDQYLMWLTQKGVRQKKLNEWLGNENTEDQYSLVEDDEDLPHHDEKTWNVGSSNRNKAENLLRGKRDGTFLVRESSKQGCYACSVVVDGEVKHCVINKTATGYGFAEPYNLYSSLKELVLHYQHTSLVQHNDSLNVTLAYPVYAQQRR

Cc1csc2nc(C(C)Nc3ncnc4[nH]cnc34)c(-c3cc(F)cc(F)c3)c(=O)n12 (single isomer, unassigned) [Example 44, 6-(3,5-difluorophenyl)-3-methyl-7-[1-(9H-purin-6-ylamino)ethyl]-5H-[1,3]thiazolo[3,2-a]pyrimidin-5-one]
< 50 nM: all assays above
